# According to patent US8129345B2, “MUC1-IκB kinase complexes and their activities” (Dana-Farber Cancer Institute, Inc., priority 2006, dated 2012):
# Columns and labels:
# [1] = biological target: IKKβ-IKKγ complexes (Homo sapiens, UniProt O14920+Q9Y6K9); assay: In vitro association of IKKβ with GST-IKKγ in absence and presence of MUC1-CD proteins; assay type: binding; details: purified IKKβ and GST-IKKγ, with or without added MUC1 protein
# Protocol: FIG. 7C is a series of photographs of immunoblots. GST- or GST-IKKγ bound to glutathione beads was incubated with IKKβ in the absence and presence of MUC1-CD protein. The precipitates were immunoblotted (IB) with anti-IKKβ (upper panel). Input amounts of the various proteins were assessed by immunoblotting with the indicated antibodies (lower 3 panels). The molecular weights of proteins (as indicated on the left of the photographs) are expressed as kilodaltons (kDa).
# (§1) FIG. 12 is a series of photographs of immunoblots. GST, and GST-IKKγ fusion proteins bound to glutathione beads were incubated with MUC1-CD, MUC1-CD(mSRM), or IKKβ proteins as indicated. The GST-pull down precipitates were immunoblotted (IB) with antibodies specific for IKKγ (top panel), IKKβ (middle panel), or MUC1 (bottom panel) as indicated. The molecular weights of proteins (as indicated on the left of the photographs) are expressed as kilodaltons (kDa).
# In vitro binding assays. Purified GST-MUC1-CD (glutathione s-transferase fused to the MUC1-CD polypeptide) was cleaved with thrombin to remove the GST moiety. […] Adsorbates to glutathione-conjugated beads were analyzed by immunoblotting.
# [2] = biological target: IKKβ (Homo sapiens, UniProt O14920); assay: In vitro incubation of IKKβ and IKKγ with ATP, phospho-IKKβ-Ser-181 immunoblot; assay type: biochemical; details: MUC1 protein added to the reaction
# Sequence of IKKβ (O14920 whole entry): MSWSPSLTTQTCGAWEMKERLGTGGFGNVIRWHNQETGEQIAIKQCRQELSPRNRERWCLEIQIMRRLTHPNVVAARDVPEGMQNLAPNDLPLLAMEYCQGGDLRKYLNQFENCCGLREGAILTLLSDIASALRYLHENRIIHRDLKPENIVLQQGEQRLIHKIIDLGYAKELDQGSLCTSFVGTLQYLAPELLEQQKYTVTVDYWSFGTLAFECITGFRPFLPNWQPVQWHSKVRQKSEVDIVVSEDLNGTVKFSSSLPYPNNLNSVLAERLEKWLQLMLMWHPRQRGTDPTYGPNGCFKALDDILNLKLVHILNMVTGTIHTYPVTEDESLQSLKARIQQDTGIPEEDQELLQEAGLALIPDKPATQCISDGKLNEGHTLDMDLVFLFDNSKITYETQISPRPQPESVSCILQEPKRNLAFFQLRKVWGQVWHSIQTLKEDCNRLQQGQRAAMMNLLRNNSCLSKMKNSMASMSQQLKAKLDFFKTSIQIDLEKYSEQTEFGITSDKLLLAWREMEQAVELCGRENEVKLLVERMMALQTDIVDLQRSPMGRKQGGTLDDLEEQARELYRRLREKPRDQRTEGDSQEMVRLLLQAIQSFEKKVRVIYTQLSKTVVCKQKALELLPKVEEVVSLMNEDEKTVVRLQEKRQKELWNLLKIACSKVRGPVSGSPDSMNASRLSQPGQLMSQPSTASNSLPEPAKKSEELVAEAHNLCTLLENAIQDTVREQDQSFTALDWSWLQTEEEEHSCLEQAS
# Sequence of IKKβ (Q9Y6K9 whole entry partner): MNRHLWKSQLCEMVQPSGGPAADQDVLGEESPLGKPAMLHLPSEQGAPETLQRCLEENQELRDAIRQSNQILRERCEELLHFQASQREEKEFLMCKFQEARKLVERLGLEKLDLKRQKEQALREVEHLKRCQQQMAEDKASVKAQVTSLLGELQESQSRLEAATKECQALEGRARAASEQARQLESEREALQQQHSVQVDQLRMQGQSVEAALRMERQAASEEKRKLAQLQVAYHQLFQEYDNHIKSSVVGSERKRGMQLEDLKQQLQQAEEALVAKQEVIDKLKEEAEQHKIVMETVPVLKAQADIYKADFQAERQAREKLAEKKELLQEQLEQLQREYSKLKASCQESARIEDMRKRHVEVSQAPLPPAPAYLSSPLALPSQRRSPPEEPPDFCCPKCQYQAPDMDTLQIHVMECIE
# Protocol: as §1, with “13” for “12”, “for (from top to bottom) phosphor-IKKβ-Ser-181 (first panel),” for “for”, “(second” for “(top”, “(third” for “(middle”, “(fourth” for “(bottom”
# [3] = test system: ZR-75-1/MUC1siRNA cells; assay: Expression of Flag-tagged MUC1-CD in ZR-75-1/MUC1siRNA cells; assay type: cell-based, Human; details: compared to empty vector
# Protocol: (§2) FIG. 9A is a pair of photographs of immunoblots. ZR-75-1/MUC1siRNA cells were transfected with the empty pIRES-puro2 vector or a pIRES-puro2-Flag-MUC1-CD vector. Lysates were prepared from the cells and subjected to SDS-PAGE and immunoblotting using antibodies specific to MUC1-C or β-actin as a control. The molecular weights of proteins (as indicated on the left of the photographs) are expressed as kilodaltons (kDa).
# as §2, with “FIG. 9B” for “FIG. 9A”, “to immunoprecipitation” for “to SDS-PAGE and immunoblotting”, “to IKKγ. Immunoprecipitates were immunoblotted using antibodies specific for IKKβ” for “to MUC1-C”, “or IKKγ” for “or β-actin”, “as indicated.” for “as a control.”
# as §2, with “9C” for “9A”, “immunoprecipitation” for “SDS-PAGE and immunoblotting”, “for IKKβ. Immunoprecipitates were immunoblotted using antibodies specific for phospho-IKKβ-ser-181” for “to MUC1-C”, “IKKβ” for “β-actin”, “indicated.” for “a control.”
# FIG. 9D is a pair of photographs of immunoblots. Cytosolic fractions were prepared from ZR-75-1/MUC1siRNA cells transfected with the empty pIRES-puro2 vector or a pIRES-puro2-Flag-MUC1-CD vector. Lysates were immunoblotted with anti-phospho-IκBα and anti-IκBα antibodies where indicated. The molecular weights of proteins (as indicated on the left of the photographs) are expressed as kilodaltons (kDa).
# FIG. 9E is a photograph of an immunoblot. Nuclear fractions were prepared from ZR-75-1/MUC1siRNA cells transfected with the empty pIRES-puro2 vector or a pIRES-puro2-Flag-MUC1-CD vector and subjected to immunoblotting with antibodies specific for NF-κB or lamin B as a control. As a further control for the quality of nuclear fractionation, immunoblotting for IκBα was performed using antibodies specific for IκBα. The molecular weights of proteins (as indicated on the left of the photographs) are expressed as kilodaltons (kDa).
# Subcellular fractionation. Nuclear and cytosolic fractions were prepared as described in Kharbanda et al. (1996) Cancer Res. 56:3617-3621.
# Immunoprecipitation and immunoblotting. Lysates from subconfluent cells were prepared as described in Ren et al. (2004) Cancer Cell 5:163-175. […] The immune complexes were detected with horseradish peroxidase-conjugated secondary (anti-IgG) antibodies (Amersham Biosciences) and enhanced chemiluminescence (ECL; Amersham Biosciences). […]
# Sequence of IKKβ-IKKγ complexes (O14920 whole entry): as the sequence (O14920 whole entry) above
# Sequence of IKKβ-IKKγ complexes (Q9Y6K9 whole entry): as the sequence (Q9Y6K9 whole entry partner) above
substance,measurement,setting,value
"MUC1-CD: 72 amino acid cytoplasmic domain of human MUC1, SEQ ID NO:2",interaction between IKKβ and IKKγ,[1],increases the interaction between IKKβ and IKKγ
same,extent of IKKβ phosphorylation on Ser-181,[2],increased significantly
same,IKKβ-IKKγ complex formation,[3],increases in IKKβ-IKKγ complex formation
same,phosphorylation of IKKβ on Ser-181,[3],increased phosphorylation
same,phosphorylation of IκBα,[3]; cytosolic fractions,increased phosphorylation
same,targeting of NF-κB p65 to the nucleus,[3]; nuclear fractions,increased targeting of NF-κB p65 to the nucleus
